The target in test [1] is Ribosomal protein S6 kinase alpha-3 (Homo sapiens) (UniProt P51812). As to the kind of experiment: Inhibition of human RSK2 at 500 nM by HotSpot assay relative to control.
Test [2] has as its target T1, Ephrin type-A receptor 3 (Homo sapiens) (UniProt P29320).
T1 sequence (whole entry): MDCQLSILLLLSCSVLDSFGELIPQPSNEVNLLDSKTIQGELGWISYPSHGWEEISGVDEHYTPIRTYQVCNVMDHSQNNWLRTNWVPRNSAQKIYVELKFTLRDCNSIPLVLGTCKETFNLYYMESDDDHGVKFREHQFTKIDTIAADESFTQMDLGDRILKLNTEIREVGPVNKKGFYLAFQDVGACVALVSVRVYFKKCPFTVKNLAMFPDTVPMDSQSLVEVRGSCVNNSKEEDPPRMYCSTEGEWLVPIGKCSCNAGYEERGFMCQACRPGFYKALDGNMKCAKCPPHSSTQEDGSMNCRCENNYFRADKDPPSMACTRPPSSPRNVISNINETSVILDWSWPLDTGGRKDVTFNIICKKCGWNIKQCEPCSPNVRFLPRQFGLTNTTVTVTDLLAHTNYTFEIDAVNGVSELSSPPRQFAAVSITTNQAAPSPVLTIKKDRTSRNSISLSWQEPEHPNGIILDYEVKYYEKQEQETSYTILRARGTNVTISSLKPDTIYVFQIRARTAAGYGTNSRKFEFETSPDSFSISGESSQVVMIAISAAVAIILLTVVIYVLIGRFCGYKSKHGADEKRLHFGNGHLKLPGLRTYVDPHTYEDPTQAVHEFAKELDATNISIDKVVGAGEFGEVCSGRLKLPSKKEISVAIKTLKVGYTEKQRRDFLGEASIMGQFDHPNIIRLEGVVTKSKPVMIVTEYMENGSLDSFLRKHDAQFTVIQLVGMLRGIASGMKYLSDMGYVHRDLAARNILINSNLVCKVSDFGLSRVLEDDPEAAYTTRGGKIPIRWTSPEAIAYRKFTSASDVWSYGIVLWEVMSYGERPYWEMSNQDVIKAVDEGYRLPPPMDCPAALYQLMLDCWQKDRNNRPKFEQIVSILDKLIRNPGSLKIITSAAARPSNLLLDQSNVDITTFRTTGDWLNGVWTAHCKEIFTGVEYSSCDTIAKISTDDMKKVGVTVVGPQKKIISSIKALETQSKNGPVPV
As to the kind of experiment: Inhibition of human EPHA3 at 500 nM by HotSpot assay relative to control.

The target of test [3] is T2, Serine/threonine-protein kinase BRSK1 (Homo sapiens) (UniProt Q8TDC3).
T2 sequence (whole entry): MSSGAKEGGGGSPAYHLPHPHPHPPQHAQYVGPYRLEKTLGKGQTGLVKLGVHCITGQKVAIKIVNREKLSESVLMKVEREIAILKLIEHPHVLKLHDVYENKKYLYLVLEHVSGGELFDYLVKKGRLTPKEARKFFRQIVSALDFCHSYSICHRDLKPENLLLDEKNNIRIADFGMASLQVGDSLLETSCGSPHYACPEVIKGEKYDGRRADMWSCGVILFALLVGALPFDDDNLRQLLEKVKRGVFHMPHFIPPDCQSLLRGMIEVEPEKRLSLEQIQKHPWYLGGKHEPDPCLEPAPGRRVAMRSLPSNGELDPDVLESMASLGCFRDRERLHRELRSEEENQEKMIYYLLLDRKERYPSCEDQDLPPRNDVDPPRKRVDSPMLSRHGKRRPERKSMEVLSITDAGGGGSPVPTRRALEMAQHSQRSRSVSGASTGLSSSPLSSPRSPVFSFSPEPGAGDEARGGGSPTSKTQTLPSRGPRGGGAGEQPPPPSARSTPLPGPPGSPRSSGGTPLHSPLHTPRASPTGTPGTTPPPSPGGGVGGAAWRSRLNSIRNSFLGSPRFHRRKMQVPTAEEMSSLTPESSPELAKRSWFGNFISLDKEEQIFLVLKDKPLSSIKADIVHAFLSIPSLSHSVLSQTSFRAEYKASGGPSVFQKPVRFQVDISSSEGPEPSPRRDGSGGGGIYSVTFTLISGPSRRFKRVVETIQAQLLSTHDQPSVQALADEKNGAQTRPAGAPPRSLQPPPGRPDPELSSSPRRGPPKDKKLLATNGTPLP
As to the kind of experiment: Inhibition of human BRSK1 at 500 nM by HotSpot assay relative to control.

Test [4] concerns the target Mitogen-activated protein kinase kinase kinase 7 (Homo sapiens) (UniProt O43318). As to the kind of experiment: Inhibition of human TAK1 at 500 nM by HotSpot assay relative to control.
Test [5] addresses T3, Serine/threonine-protein kinase BRSK2 (Homo sapiens) (UniProt Q8IWQ3).
T3 sequence (whole entry): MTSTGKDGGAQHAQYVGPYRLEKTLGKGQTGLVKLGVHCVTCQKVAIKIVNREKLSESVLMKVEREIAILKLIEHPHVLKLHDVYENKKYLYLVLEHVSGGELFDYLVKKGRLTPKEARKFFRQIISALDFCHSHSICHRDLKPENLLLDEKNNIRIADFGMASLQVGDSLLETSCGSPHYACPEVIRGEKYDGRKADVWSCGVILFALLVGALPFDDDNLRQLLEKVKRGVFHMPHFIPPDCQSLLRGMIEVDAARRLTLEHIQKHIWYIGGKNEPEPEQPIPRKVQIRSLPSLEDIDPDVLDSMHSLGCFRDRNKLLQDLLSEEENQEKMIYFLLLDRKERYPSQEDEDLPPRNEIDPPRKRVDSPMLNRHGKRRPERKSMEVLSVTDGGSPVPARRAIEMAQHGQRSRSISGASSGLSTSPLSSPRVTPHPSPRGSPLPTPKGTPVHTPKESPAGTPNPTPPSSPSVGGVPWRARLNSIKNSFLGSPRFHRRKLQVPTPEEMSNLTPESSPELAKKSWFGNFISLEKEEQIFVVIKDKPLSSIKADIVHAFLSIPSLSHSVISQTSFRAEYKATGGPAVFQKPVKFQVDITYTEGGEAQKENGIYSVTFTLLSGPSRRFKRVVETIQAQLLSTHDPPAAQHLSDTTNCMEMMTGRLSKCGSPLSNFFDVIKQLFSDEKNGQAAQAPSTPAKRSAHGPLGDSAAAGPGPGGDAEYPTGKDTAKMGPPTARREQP
Put plainly: Inhibition of human BRSK2 at 500 nM by HotSpot assay relative to control.

Ribosomal protein S6 kinase alpha-3 (Homo sapiens), sequence (P51812 whole entry): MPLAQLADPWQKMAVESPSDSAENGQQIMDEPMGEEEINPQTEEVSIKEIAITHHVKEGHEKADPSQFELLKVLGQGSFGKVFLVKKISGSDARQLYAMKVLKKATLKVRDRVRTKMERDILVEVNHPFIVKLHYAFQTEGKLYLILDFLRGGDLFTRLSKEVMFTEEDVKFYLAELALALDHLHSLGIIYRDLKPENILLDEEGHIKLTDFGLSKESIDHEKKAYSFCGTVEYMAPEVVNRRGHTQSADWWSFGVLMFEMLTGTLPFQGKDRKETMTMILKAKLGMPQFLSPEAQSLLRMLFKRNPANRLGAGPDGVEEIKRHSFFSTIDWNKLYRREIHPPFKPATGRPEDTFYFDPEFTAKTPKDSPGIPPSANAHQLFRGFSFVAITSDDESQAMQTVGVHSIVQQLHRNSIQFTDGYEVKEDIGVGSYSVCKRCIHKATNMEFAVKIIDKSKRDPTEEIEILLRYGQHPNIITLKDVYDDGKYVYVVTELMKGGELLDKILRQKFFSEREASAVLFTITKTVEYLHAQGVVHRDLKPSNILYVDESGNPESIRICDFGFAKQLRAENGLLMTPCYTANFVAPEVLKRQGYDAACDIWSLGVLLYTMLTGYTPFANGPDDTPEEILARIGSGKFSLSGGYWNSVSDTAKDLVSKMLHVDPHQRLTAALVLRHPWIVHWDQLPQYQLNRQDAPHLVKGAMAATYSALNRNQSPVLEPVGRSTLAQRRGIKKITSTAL
Mitogen-activated protein kinase kinase kinase 7 (Homo sapiens), sequence (O43318 whole entry, looked up): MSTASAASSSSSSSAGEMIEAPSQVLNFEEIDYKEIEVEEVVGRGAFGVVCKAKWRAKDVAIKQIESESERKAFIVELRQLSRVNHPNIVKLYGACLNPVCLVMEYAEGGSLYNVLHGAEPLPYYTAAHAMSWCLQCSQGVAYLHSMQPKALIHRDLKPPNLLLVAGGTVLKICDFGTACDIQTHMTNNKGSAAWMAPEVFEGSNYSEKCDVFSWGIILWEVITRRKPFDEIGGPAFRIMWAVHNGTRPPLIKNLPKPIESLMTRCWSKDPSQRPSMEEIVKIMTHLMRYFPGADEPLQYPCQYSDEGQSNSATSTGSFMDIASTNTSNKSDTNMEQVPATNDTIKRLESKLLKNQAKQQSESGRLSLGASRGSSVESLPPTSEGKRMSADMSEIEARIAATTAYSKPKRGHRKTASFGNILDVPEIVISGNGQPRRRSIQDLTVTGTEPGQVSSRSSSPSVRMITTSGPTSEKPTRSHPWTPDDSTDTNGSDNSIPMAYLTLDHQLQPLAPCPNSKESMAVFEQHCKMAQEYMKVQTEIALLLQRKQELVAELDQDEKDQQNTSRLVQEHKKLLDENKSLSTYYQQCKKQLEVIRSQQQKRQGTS

For the compound `Oc1n[nH]c2nnc(-c3c(-c4ccccc4)nn4ccccc34)cc12`, the inhibition – broadly, the drop in the measured response relative to a control, in per cent – in test [1] is -2.36%; in test [2] it was 5.45%; in test [3], -2.29%; in test [4], -3.14%; in test [5] it was 1.23%.
In the same order, the values of `Nc1n[nH]c2nnc(-c3c(-c4ccccc4)nn4ccccc34)cc12` are 1.29%, 2.18%, 1.41%, -1.47% and 3.92%.

Source of the values: ChEMBL document CHEMBL5653615 (J Biol Chem, 2013).
